Consider 1 compound from article PMC7044277 (Nature Communications, 2020).

Common to all, as to format: cell-based
Test [1] addresses T1, 320 non-olfactory GPCRs (Homo sapiens, UniProt P25105).
T1 construct: expressed in transfected cells; host or cells: HTLA cells
As to conditions: receptor PTAFR; replicate values, Fig_4g.

The target in test [2] is T2, 320 non-olfactory GPCRs (Homo sapiens, UniProt P32247).
T2 construct: expressed in transfected cells; host or cells: HTLA cells

The target of test [3] is 320 non-olfactory GPCRs (Homo sapiens, UniProt P35372). As to conditions: receptor OPRM1; replicate values, Fig_4g.
In test [4] the target is T3, 320 non-olfactory GPCRs (Homo sapiens, UniProt Q8NFJ6).
T3 construct: expressed in transfected cells; host or cells: HTLA cells
The note with it: receptor PK2; replicate values, Fig_4g.

SMILES strings stand for the structures. Values joined by “and” are separate entries in the source; they are usually repeats but may differ in a detail not shown here. Equal entries are not always repeated.
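Throughout, for Fold of Basal: compound tested at 1 µM final concentration.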
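Throughout, for GPCRome agonism screen response: fold over basal response of each receptor without drug.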

T2 sequence (P32247 whole entry): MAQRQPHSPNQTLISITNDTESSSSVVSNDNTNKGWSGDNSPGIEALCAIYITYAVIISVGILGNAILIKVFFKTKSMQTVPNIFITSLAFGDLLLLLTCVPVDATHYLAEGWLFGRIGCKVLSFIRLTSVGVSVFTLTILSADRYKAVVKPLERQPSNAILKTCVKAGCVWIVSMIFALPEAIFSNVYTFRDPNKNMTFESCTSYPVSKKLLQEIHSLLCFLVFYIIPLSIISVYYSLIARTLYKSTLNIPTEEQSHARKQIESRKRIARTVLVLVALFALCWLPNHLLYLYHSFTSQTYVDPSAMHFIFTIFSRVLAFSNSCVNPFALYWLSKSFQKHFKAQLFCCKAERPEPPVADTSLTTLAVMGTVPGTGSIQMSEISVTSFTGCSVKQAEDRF
T3 sequence (Q8NFJ6 whole entry): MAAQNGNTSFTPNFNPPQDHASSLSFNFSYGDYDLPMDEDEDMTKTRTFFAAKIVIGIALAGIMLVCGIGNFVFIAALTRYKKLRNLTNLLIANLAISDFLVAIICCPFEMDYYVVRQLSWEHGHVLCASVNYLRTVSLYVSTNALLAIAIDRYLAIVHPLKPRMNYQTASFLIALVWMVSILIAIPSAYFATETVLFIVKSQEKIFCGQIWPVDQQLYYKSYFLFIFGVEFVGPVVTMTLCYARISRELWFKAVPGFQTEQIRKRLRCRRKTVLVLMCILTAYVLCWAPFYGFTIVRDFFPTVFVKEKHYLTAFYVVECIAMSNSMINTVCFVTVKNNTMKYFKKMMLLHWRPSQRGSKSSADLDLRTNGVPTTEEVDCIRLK
T1 sequence (P25105 whole entry): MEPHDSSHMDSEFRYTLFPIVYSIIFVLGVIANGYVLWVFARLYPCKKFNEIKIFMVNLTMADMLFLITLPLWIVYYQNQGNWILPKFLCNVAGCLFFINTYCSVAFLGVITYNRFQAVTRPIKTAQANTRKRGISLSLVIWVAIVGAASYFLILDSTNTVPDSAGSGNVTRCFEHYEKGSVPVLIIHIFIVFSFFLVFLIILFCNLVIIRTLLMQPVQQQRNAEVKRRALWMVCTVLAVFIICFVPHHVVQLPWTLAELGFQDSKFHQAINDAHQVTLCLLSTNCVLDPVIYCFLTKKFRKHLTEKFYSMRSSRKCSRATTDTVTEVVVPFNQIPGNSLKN
Sequence of 320 non-olfactory GPCRs (Homo sapiens, UniProt P35372) (P35372 whole entry): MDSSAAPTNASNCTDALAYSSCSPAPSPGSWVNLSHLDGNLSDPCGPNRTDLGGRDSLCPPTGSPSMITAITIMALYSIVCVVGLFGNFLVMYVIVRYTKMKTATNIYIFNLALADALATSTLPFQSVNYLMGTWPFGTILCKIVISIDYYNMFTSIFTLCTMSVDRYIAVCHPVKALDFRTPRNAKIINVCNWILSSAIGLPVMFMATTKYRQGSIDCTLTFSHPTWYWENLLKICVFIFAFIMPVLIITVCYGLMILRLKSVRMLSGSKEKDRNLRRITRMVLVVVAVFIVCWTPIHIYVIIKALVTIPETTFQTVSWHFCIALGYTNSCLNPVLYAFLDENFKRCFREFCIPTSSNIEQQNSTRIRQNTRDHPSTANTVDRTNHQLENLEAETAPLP

As to `CCOc1cccc2cc(C(C)NCC3(O)CCCCC3)oc12` (stereo not shown) [O4LE6], the “GPCRome agonism screen response” value on 320 non-olfactory GPCRs [1] was 0.04948 and 0.5552 and 0.8041; at 320 non-olfactory GPCRs [3] it was 0.5449 and 0.6973 and 1.0539 and 0.5973; at 320 non-olfactory GPCRs [4], 0.6601 and 1.45 and 1.515 and 1.156. The “Fold of Basal” value on 320 non-olfactory GPCRs [2] was 1.192 and 1.354 and 1.033 and 1.091.
